The source of these data is patent publication US5376679A, “Bicyclic or tricyclic biocidal compounds” (Shell Internationale Research Maatschappij B.V., priority 1988, dated 1994).

Molecules are shown by their SMILES.

In one assay the test system is bacteria. The conditions noted are these: prior art; cited from earlier work.
The next assay relates to fungi. As to conditions: prior art; cited from earlier work.
For the next assay, the system named is Podosphaera leucotricha. Briefly: Direct antisporulant activity against apple powdery mildew (Pl). Type of assay: in vivo. The conditions noted are these: foliar spray, 1 kg/ha; activity grade 1 or 2, not defined. An excerpt:
(h) Activity Against Apple Powdery Mildew (Podosphaera leucotricha; Pl) The test is a direct anti-sporulant one using a foliar spray. The upper surfaces of leaves of whole seedlings are inoculated by spraying with an aqueous suspension containing 10^5 conidia/ml 2 days prior to treatment with the test compound. The inoculated plants are immediately dried and kept at glasshouse ambient temperatures and humidity prior to treatment. […] After drying the plants are returned to a compartment at ambient temperature and humidity for up to 9 days, followed by assessment. Assessment is based on the percentage of the leaf area covered by sporulation compared with that on leaves of control plants.

Assay [1] concerns Pseudocercosporella herpotrichoides. Briefly: In vitro activity against wheat eyespot (Ph). Also on record: Ph: activity against wheat eyespot: scale not given here. As to conditions: for Ph: activity against wheat eyespot: in vitro, 100 ppm in agar, 11 days, activity grade 1 or 2, not defined. Format: cell-based. In a few lines: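 Compound was dispersed from acetone into half-strength potato dextrose agar at 100 ppm final. Two 5 mm mycelial plugs were placed on each plate, which was incubated 11 days at 20–22 °C in darkness. Diametric growth minus plug width was compared with acetone-only agar.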

The test system of assay [2] is Erysiphe graminis f.sp. hordei. Briefly: Direct antisporulant activity against barley powdery mildew (Eg). Type of assay: in vivo. Also on record: scale not given here. The conditions noted are these: foliar spray, 1 kg/ha; activity grade 1 or 2, not defined. In a few lines: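 Barley seedlings (cv. Golden Promise) were dusted with conidia one day before a foliar spray of compound. Plants were then held at ambient glasshouse conditions for up to 7 days. Sporulating leaf area (%) was scored against untreated control plants.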

The subject of a further assay is Fusarium culmorum. Briefly: Activity against seedling wheat blight, soil drench (Fs). Format: in vivo. Also on record: scale not given here. As to conditions: 10 kg/ha, 21 days, activity grade 1 or 2, not defined. In a few lines: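 Wheat seeds (var Waggoner) soaked 6 h at 22° C in 7×10^5 spores/ml, sown in sand; 1 day later soil drench at 10 kg/ha (0.36 g/l in 12% v/v acetone/water). Glasshouse at 25° C; at 21 days, stem-base and upper-root lesions scored visually against control seedlings.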

Assay [3] concerns Plasmopara viticola. The experiment in a line: Translaminar protectant test, vine downy mildew (Pvt). Type of assay: in vivo. As to conditions: secondary screening. From the text: The fungicidal activity of certain of the compounds was investigated further, in secondary screening.
In assay [4] the test system is Plasmopara viticola. The experiment in a line: Direct protectant activity against vine downy mildew (Pvp). Format: in vivo. Set-up: Pvp: direct protectant activity against vine downy mildew: scale not given here. The conditions noted are these: foliar spray, 1 kg/ha; activity grade 1 or 2, not defined. The procedure, abridged: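 Lower leaf surfaces of whole vine plants (cv Cabernet Sauvignon) were sprayed at 1 kg/ha in water/acetone with surfactant, then inoculated 24 h later with 10^4 zoosporangia/ml. Scored as % leaf area with sporulation versus control leaves.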

The next assay relates to Alternaria Solani. Briefly: Direct protectant activity against tomato early blight (As). Note: dose 1000 g/ha. Format: in vivo. Also on record: As: activity against tomato early blight: scale not given here. The conditions noted are these: foliar spray as under (a), 8 days; activity grade 1 or 2, not defined. On the procedure: (g) Activity Against Tomato Early Blight (Alternaria Solani; As). The test is a direct protectant one using a foliar spray. The upper surfaces of leaves of young tomato plants are sprayed with a solution of active material as described in (a) above. After 24 hours under normal glasshouse conditions, the upper surfaces of the leaves are inoculated by spraying with an aqueous suspension containing 10^4 spores/ml. The inoculated plants are kept for 72 hours in a high humidity compartment and are then removed to lower humidity (50-70% relative humidity). Assessment is made 8 days after inoculation.

For a further assay, the system named is Leptosphaeria nodorum. The experiment in a line: Direct antisporulant activity against wheat leafspot (Ln). Type of assay: in vivo. Also on record: scale not given here. The conditions noted are these: foliar spray, 1 kg/ha; activity grade 1 or 2, not defined. In a few lines:
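Single-leaf wheat plants were spray-inoculated with 8×10^5 spores/ml and held 24 h at high humidity before foliar spray treatment. Plants were then kept 5 days in the glasshouse. Read-out is the percentage of leaf area sporulating, relative to untreated controls.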

Another assay has as its system Botrytis cinerea. The experiment in a line: Direct protectant activity against vine grey mould (Bcp). The conditions noted are these: foliar spray, 1 kg/ha; activity grade 1 or 2, not defined. Format: in vivo. An excerpt:
(b) Direct Protectant Activity Against Vine Grey Mould (Botrytis cinerea; Bcp) The test is a direct protectant one using a foliar spray and is effected as described under (a), with the difference that the leaves are inoculated by spraying with an aqueous solution containing 10^5 conidia/ml.

A further assay has as its system Pyricularia oryzae. Type of assay: in vivo. As to conditions: foliar spray, 1 kg/ha; activity grade 1 or 2, not defined.

Turning to `N#CN=[N+]([O-])c1ccccc1C(=O)O` [2-(cyano-N,N,O-azoxy)benzoic acid], the antibacterial activity result in the assay with bacteria is “low activity against bacteria”. In addition, the antifungal activity result with fungi is “no relevant activity against the tested fungi”.

With `C[S+](C)[O-].N#CN=[N+]([O-])c1ccc(C(=O)O)cc1` [4-carboxyphenylazoxycyanide-dimethylsulphoxide], the antibacterial activity result in the assay with bacteria was “Antibacterial and antifungal properties”. Further, the antifungal activity entry with fungi is “Antibacterial and antifungal properties”.

Take `COC(=O)N=Nc1cccc2c1OC(C)(C)C2` [Example 31]: in the assay with Podosphaera leucotricha, the “Other: Pl, activity against apple powdery mildew” value (“Other: Pl, activity” below) turned out to be 1. The “Ph: activity against wheat eyespot” value in assay [1] worked out at 1. For the same compound, the “Eg: activity against barley powdery mildew” value (shortened to “Eg: activity”) in [2] is reported as 1. Further, the “Fs: activity against seedling wheat blight” value in the assay on Fusarium culmorum is 1.

As to `CCC1Cc2c(C)ccc(N=NC(=O)OC)c2O1` (stereo not drawn) [Example 37], the “Other: Pl, activity” value in the assay on Podosphaera leucotricha was 1. Also, in [1], the “Ph: activity against wheat eyespot” value was 1. For the same compound, the “activity against Pvt” value in the assay with Plasmopara viticola [3] is on record as “high activity”. Also, the “Pvp: direct protectant activity against vine downy mildew” value with Plasmopara viticola [4] amounted to 1. Moreover, the “As: activity against tomato early blight” value in the assay on Alternaria Solani stood at 1.

On to `C=CCOC(=O)N=Nc1ccc(C)c2c1OC(C)CC2` (stereo not drawn) [Example 40], for which the “Other: Pl, activity” value in the assay on Podosphaera leucotricha came to 2. Also, the “Ln: activity against wheat leafspot” value in the assay with Leptosphaeria nodorum is reported as 1.

On to `COC(=O)N=[N+]([O-])c1cccc2c1OC(C)(C)C2` [Example 43], for which the “Other: Pl, activity” value in the assay with Podosphaera leucotricha amounted to 1. Moreover, in assay [1], the “Ph: activity against wheat eyespot” value stood at 2. In [1] (secondary screening), the “activity against Ph” value was “high activity”. Further, in [2], the “Eg: activity” value amounted to 2. Besides, in the assay with Botrytis cinerea, the “Bcp: direct protectant activity against vine grey mould” value is recorded as 1.

Turning to `COC(=O)N=[N+]([O-])c1ccc(C)c2c1OC(C)CC2` (stereo not drawn) [Example 46], the “Ph: activity against wheat eyespot” value in [1] was found to be 2. Also, the “Eg: activity” value in assay [2] is given as 2. In addition, the “Other: Po, activity against rice leaf blast” value with Pyricularia oryzae was 2. Besides, the “Ln: activity against wheat leafspot” value in the assay with Leptosphaeria nodorum is 2. Moreover, in the assay on Plasmopara viticola [4], the “Pvp: direct protectant activity against vine downy mildew” value turned out to be 2. The “As: activity against tomato early blight” value in the assay with Alternaria Solani came out at 2.

With `COC(=O)c1ccc([N+]([O-])=NC#N)cc1` [calvatic acid methyl ester], the antibacterial activity entry in the assay with bacteria was “antibacterial and antifungal activity”. For the same compound, the antifungal activity result in the assay on fungi is “antibacterial and antifungal activity”.

As to `N#CN=[N+]([O-])c1ccc(C(=O)O)cc1` [calvatic acid, 4 -(cyano-N,N,O-azoxy) benzoic acid], the antibacterial activity result in the assay with bacteria was “antibacterial and antifungal activity”. In addition, the antifungal activity result in the assay on fungi was “antibacterial and antifungal activity”.
